A word on the half-life: it is the time in which the quantity being followed falls by half.

These results are taken from patent publication US20260248834A1, “PHARMACEUTICAL COMPOSITION AND METHOD FOR TREATMENT OF HUMAN IMMUNODEFICIENCY VIRUS INFECTIONS” (Brii Biosciences, Inc., priority 2022, published 2026).

Where only a bound is given, the exact number is not on record here.

Data set [1] is described as follows: Phase I study: pharmacokinetics of 1-A and islatravir in plasma. In kind it is in vivo, human. An excerpt:
(§1) This example describes results from a Phase I, randomized, double-blind, placebo-controlled study for adenosine derivative having Formula 1-A (“1-A”), which is a prodrug of islatravir (ISL). Following oral absorption, 1-A is rapidly converted to ISL, which is metabolized intracellularly to the active metabolite, ISL triphosphate (ISL-TP). The objectives of the study were to assess the safety, tolerability, and PK profiles of 1-A and ISL in plasma; and ISL diphosphate (ISL-DP) and ISL-TP in human PBMCs.
(§2) Methods. Healthy adult subjects were enrolled in five single ascending dose and two multiple ascending dose cohorts. 1-A was administered to single dose cohorts in amounts of 10 mg, 25 mg, 50 mg, 100 mg or 200 mg. 1-A was administered to multiple dose cohorts in amounts of 10 mg per week for 3 weeks or 25 mg per week for 3 weeks. 1-A was orally administered in the fasted state using an oral solution formulation. Safety-related assessments included physical examinations, ECGs, vital signs, AEs, and standard clinical laboratory tests.

A short description of data set [2]: Stability in Human Liver S9 (conversion to EFdA). Format: in vitro ADME. An excerpt:
(§3) The adenosine derivative having the Formula 1-A was produced according to the process described in PCT publication WO2021021717, published on Feb. 4, 2021, herein incorporated by reference. [table]

Data set [3] can be described thus: Phase I study: safety and tolerability (treatment-emergent adverse events). In kind it is in vivo, human. Here is the method: Following oral absorption, 1-A is rapidly converted to ISL, which is metabolized intracellularly to the active metabolite, ISL triphosphate (ISL-TP). The objectives of the study were to assess the safety, tolerability, and PK profiles of 1-A and ISL in plasma; and ISL diphosphate (ISL-DP) and ISL-TP in human PBMCs.
as §2

Data set [4] can be described thus: Phase I study: pharmacokinetics of ISL-TP in PBMCs. To be noted: for ISL-TP in PBMCs AUClast / ISL-TP in PBMCs Cmax: 3 weekly oral doses of 25 mg 1-A, healthy adults, mean. Format: in vivo, human.
Excerpt: as §1, §2

Data set [5] is described as follows: Stability in Human Plasma (conversion to EFdA). In kind it is in vitro ADME.
Excerpt: as §3

Data set [6] is described as follows: Intracellular half-life of EFdA triphosphate in human. In kind it is in vivo. Particulars: cells (intracellular; cell type not given), read-out: intracellular half-life of EFdA triphosphate (EFdA-TP) (converted).
[7] abbreviates: single or multiple oral doses of 1-A, 10 mg to 200 mg.

Regarding `C#C[C@]1(COC(=O)OCc2oc(=O)oc2C)O[C@@H](n2cnc3c(N)nc(F)nc32)C[C@@H]1O` [Formula 1-A, ((2R,3S,5R)-5-(6-amino-2-fluoro-9H-purin-9-yl)-2-ethynyl-3-hydroxytetrahydro-furan-2-yl)methyl ((5-methyl-2-oxo-1,3-dioxol-4-yl)methyl) carbonate], the “PK profiles of ISL in plasma and ISL-TP in PBMC cells” value in data set [1] (after single and multiple oral administrations of 1-A) is given as “linear pharmacokinetics”. In data set [1] (single or multiple oral administrations of 1-A up to 200 mg, healthy adults), the “systemic exposure to 1-A (plasma, LLOQ)” value was below 1.0 ng/mL. Also, in data set [1] (setting [7]), the “EFdA accumulation in plasma” value is “No meaningful EFdA accumulation” and the “ISL plasma PK profiles” value is on record as “Dose-dependent”. Besides, the half-life in data set [2] (human liver S9) is below 0.833 h. Besides, the “Stability in Human Liver S9 Formation of EFdA at 60 min” value in data set [2] (human liver S9, 60 min) was “Yes”. Further, in data set [2] (human liver S9 assay), the “conversion to the target drug” value is recorded as “converted to the target drug efficiently”. For the same molecule, in data set [3] (10 mg QW × 3 oral (N = 3)), the “Number (%) of Subjects with Any Death” value amounted to 0; the “Number (%) of Subjects with Any TEAE” value is recorded as 2 (66.7%); the “Number (%) of Subjects with Any TEAE Grade 1” value was 2 (66.7%); the “Number (%) of Subjects with Any TEAE Grade 2, 3, 4, or 5” value came out at 0. In data set [3] (10 mg QW × 3 oral (N = 3)), the “Number (%) of Subjects with Any TEAE Leading to Premature Discontinuation of Study Drug” value is listed as 0; the “Number (%) of Subjects with Any TEAE Related to Study Drug” value is recorded as 2 (66.7%); the “Number (%) of Subjects with Any TEAE Related to Study Drug Grade 1” value is 2 (66.7%); the “Number (%) of Subjects with Any TEAE Related to Study Drug Grade 2, 3, 4, or 5” value came out at 0. Besides, in data set [3] (10 mg QW × 3 oral (N = 3)), the “Number (%) of Subjects with Any Treatment-emergent Serious AE” value is recorded as 0. For the same molecule, in data set [3] (25 mg QW × 3 oral (N = 6)), the “Number (%) of Subjects with Any Death” value amounted to 0; the “Number (%) of Subjects with Any TEAE” value was 2 (33.3%); the “Number (%) of Subjects with Any TEAE Grade 1” value is 2 (33.3%); the “Number (%) of Subjects with Any TEAE Grade 2, 3, 4, or 5” value was 0. In data set [3] (25 mg QW × 3 oral (N = 6)), the “Number (%) of Subjects with Any TEAE Leading to Premature Discontinuation of Study Drug” value worked out at 0; the “Number (%) of Subjects with Any TEAE Related to Study Drug” value is 2 (33.3%); the “Number (%) of Subjects with Any TEAE Related to Study Drug Grade 1” value was 2 (33.3%); the “Number (%) of Subjects with Any TEAE Related to Study Drug Grade 2, 3, 4, or 5” value was 0. In addition, the “Number (%) of Subjects with Any Treatment-emergent Serious AE” value in data set [3] (25 mg QW × 3 oral (N = 6)) is listed as 0. In addition, the tolerability result in data set [3] (single doses up to 200 mg and repeat doses up to 25 mg, healthy adults) was “generally well tolerated”. Moreover, in data set [4] (Day 1), the “ISL-TP in PBMCs AUClast” value is listed as 617 h*pmol/10^6 cells and the “ISL-TP in PBMCs Cmax” value is reported as 5.70 pmol/10^6 cells. Further, in data set [4] (Day 15), the “ISL-TP in PBMCs AUClast” value came to 2210 h*pmol/10^6 cells and the “ISL-TP in PBMCs Cmax” value was found to be 15.4 pmol/10^6 cells. The “ISL-TP accumulation in PBMCs” value in data set [4] (after 3 weekly doses of 25 mg 1-A) is on record as “significant ISL-TP accumulations”. For the same molecule, the “intracellular formation of ISL-TP in PBMCs” value in data set [4] (oral 1-A, dose-dependent manner) was “Efficient intracellular formation”. In data set [5] (human plasma), this molecule showed a half-life below 0.833 h. Besides, in data set [5] (human plasma assay), the “conversion to the target drug” value is “converted to the target drug efficiently”. Further, the “Stability in Human Plasma Formation of EFdA at 60 min” value in data set [5] (human plasma, 60 min) is listed as “Yes”.

For the molecule `C#C[C@]1(COP(=O)(O)OP(=O)(O)OP(=O)(O)O)O[C@@H](n2cnc3c(N)nc(F)nc32)C[C@@H]1O` [EFdA-TP, 4′-ethynyl-2-fluoro-2′-deoxyadenosine triphosphate], in data set [6], the half-life is around 108 h.
